Patent publication US4976960A, “Food supplements” (Bar Ilan University, priority 1986, dated 1990)
Values joined by “and” are separate entries in the source; they are usually repeats but may differ in a detail not shown here. Identical values can stand only once.

Tests used:
[1] = system: liver microsomal NADPH oxidase; test: Liver microsomal NADPH oxidase activity in rabbits fed supplemented vitamin E deficient diet; format: in vivo; conditions: after 30 days, vs basal vitamin E deficient diet
[2] = system: pyruvate oxidase; test: Pyruvate oxidase activity in rabbits fed supplemented vitamin E deficient diet; format: in vivo; conditions: after 30 days, vs basal vitamin E deficient diet
[3] = system: prostacyclin (PGI2); test: Endogenous release of prostacyclin by isolated aorta segments of fed rabbits; format: in vivo; conditions: after 30 days, vs basal vitamin E deficient diet
[4] = system: Fibroblasts; test: Lipid peroxidation in fibroblast culture, TBA assay; format: cell-based; conditions: 0.01%, 3 days of incubation, 37° C.
Protocol: The possibility that the present antioxidant may serve as a substitute for vitamin E was also tested in tissue culture. Fibroblasts were grown in an appropriate medium for three days at a temperature of 37° C., (a) in absence of additive (control), (b) in presence of 0.01% vitamin E, and (c) in presence of 0.01% present (crude) antioxidant.

[5] = system: peroxides in the skin; test: Peroxide level in skin of adult mice (TBA test), topical application; format: in vivo; conditions: 0.1% in Oil of Olay
Source text: Samples of lotions and appropriate controls were applied to mice or rat skin for a fixed period. The application was done once a day. Experiments were terminated by killing the animal, peeling the skin and freezing it in liquid nitrogen. Samples of the frozen skin were homogenized in 0.2M phosphate buffer, pH 6.5. After centrifugation, the supernatant was collected and analyzed for the peroxide value using the TBA (thiobarbituric acid) test as described by Sinnhuber et al, Food Res. 23:620 (1958).
In these experiments adult mice (2 months old) were treated as described in Example 2. The grown mice were shaved before applying the lotions to the skin. In this experiment the antioxidant was dissolved in Oil of Olay. Mice were sacrificed after 21 days.

[6] = system: peroxide level in the skin; test: Malondialdehyde (MDA) level in epidermis of UV-irradiated hairless mice; format: in vivo, hairless mice (SKH/Hr); conditions: for % decrease in MDA, mean / MDA, Treated Irradiated Site, mean / % decrease in MDA / MDA, Treated Irradiated Site: 5% in ethanol
Source text: In this experiment, alpha-tocopheryl acetate and the present antioxidant were applied to the skin of hairless mice and the level of peroxide in the skin after exposure to UV radiation compared to a control group. The detailed procedure was as follows.
The malondialdehyde (MDA) assay is based on the methods of Dixit et al [J. Invest. Derm., 81: 369-75 (1983)], Tappel and Summerfield ["Measurement of and protection from in vivo lipid peroxidation", Free Radicals in Biology Vol. IV (1980). Academic Press, New York (W. A. Pryor, ed.)] and Placer et al [Analytical Biochemistry, 16:359-64 (1966)].
6-8week old hairless mice [(SKH/Hr); Skin and Cancer Hospital, Temple University, Philadelphia] were anesthetized using a 1:10 dilution of Sodium Pentobarbital (50 mg./ml., Elkins-Sinn. Inc.). The UV light sources were 2 fluorescent lamps (Westinghouse PS-40) and light intensity was measured with an Optometer (United Detector Technology) using a UVB filter. The tissue was homogenized using a Heat Systems model W-10 Sonicator, filtration and centrifugation of the homogenates being effected through a 2.5 micron Millipore filter and a Sorvall RC-5 Speed Centrifuge, respectively. The buffer consisted of 0.1M potassium phosphate, pH 7.4 with 10^-4 M magnesium chloride.
The protein assay is based on the method given in Clinical Chemistry, 23: 908 (1977). The modified biuret reagent contains per liter 3.8 g. CuSO4, 6.7 g. EDTA, 17.5 g. glycine, 14.0 g. NaCI and 40.0 g. NaOH. Absorbance was measured on an MS-2 Spectrophotometer (Micromedic Systems, Inc.).
20 mice were anesthetized with Sodium Pentobarbital (0.5 mg./10 g. body weight). Two rectangular areas, 6.25 cm.^2 each, were outlined on the dorsal and ventral sides of each mouse. The dorsal areas were designated as left dorsal (site A) and right dorsal (site B). The ventral areas were designated as left ventral (site C) and right ventral (site D). The products were applied in an aliquot of 75 ul. to the designated sites. The application protocol was randomized so that a given treatment was not restricted to the same area of the skin. One site on each dorsal and ventral side remained untreated to serve as the irradiated controls. 15 minutes after product application, the mice were exposed to 110 millijoules of UV light per cm.^2 of skin area over a period of 220 seconds per side. The mice were placed so that the area to be irradiated was directly under the light source while the areas on the other side were protected from the radiation. The mice were irradiated on both the dorsal and ventral sides. After UV treatment, the mice were returned to separate cages to recover from the anesthesia.
4 hours after irradiation, the mice were sacrificed by cervical dislocation. The skin was removed and stretched over a styrofoam block. The epidermis was separated from the dermis by heating the skin in a water bath for 60 seconds at 54° C. and then scraping the surface with a scalpel. Each 6.25 cm. area of epidermis was placed in a separate 1.5 ml. Eppendorf vial with 200 ul. of buffer. The pieces of epidermis were homogenized by sonication for 2×30 seconds, with a 10 second pause between each 30 second period to prevent heat buildup. The vial was kept in an ice bath.
After homogenization, 1 ml. of buffer was added to each vial and vortexed. The homogenate was filtered through a 2.5 micron filter, twice. An aliquot containing 1.4-1.8 mg. of homogenate protein was placed into test tubes with 0.6 ml. 10% trichloroacetic acid and 1.2 ml. 0.5% (w/v) 2-thiobarbituric acid. The test tube mixture was well vortexed and then placed in a boiling water bath for 10 minutes, the top of the test tube being covered with a marble which acted as a condensor. The tubes were cooled with running tap water and centrifuged for 15 minutes at 30,000×g. Blanks were prepared by placing 0.1M phosphate buffer in test tubes. All assays were done in duplicate. […]

[7] = combined dorsal and ventral mean
[8] = ventral, individual samples 6-10

vitamin E
liver microsomal NADPH oxidase activity (enzymatic lipid peroxidation) [1]: decreased | pyruvate oxidase activity (enzymatic lipid peroxidation) [2]: decreased | endogenous release of prostacyclin (PGI2), detected as 6-keto-PGF1-alpha [3]: significantly increased | Peroxide value (TBA assay) [4]: 0.015

COc1ccc(O)c(C(C)(C)C)c1 [BHA, butylated hydroxy anisole]
effect on the level of peroxides in the skin [5]: no reduction of the level of peroxides was observed

CC(=O)Oc1c(C)c(C)c2c(c1C)CCC(C)(CCC[C@H](C)CCC[C@H](C)CCCC(C)C)O2 (stereo partly drawn) [alp. tocopheryl acetate, alpha-tocopheryl acetate]
effectiveness in reducing the level of peroxides in the skin ([6]; 1% antioxidant in Oil of Olay vs 5% alpha-tocopheryl acetate in ethanol): significantly less effective | % decrease in MDA, mean [6, 7]: 27.82% | MDA, Treated Irradiated Site, mean [6, 7]: 0.168 nM MDA/mg. protein | % decrease in MDA, mean ([6]; dorsal mean): 27.26% | MDA, Treated Irradiated Site, mean ([6]; dorsal mean): 0.165 nM MDA/mg. protein | % decrease in MDA ([6]; dorsal, individual samples 1-5): 34.78% and 39.77% and 22.92% and 12.75% and 26.10% | MDA, Treated Irradiated Site ([6]; dorsal, individual samples 1-5): 0.105 nM MDA/mg. protein and 0.103 nM MDA/mg. protein and 0.074 nM MDA/mg. protein and 0.308 nM MDA/mg. protein and 0.235 nM MDA/mg. protein | % decrease in MDA, mean ([6]; ventral mean): 28.38% | MDA, Treated Irradiated Site, mean ([6]; ventral mean): 0.172 nM MDA/mg. protein | % decrease in MDA [6, 8]: 42.41% and 28.95% and 23.17% and 22.39% and 25.00% | MDA, Treated Irradiated Site [6, 8]: 0.148 nM MDA/mg. protein and 0.189 nM MDA/mg. protein and 0.305 nM MDA/mg. protein and 0.027 nM MDA/mg. protein

Cc1c(C)c2c(c(C)c1O)CCC(C)(CCCC(C)CCCC(C)CCCC(C)C)O2 (stereo not drawn) [alpha tocopherol]
effect on the level of peroxides in the skin [5]: no reduction of the level of peroxides was observed

Cc1cc(C(C)(C)C)c(O)c(C(C)(C)C)c1 [BHT, butylated hydroxy toluene]
effect on the level of peroxides in the skin [5]: no reduction of the level of peroxides was observed
